# Laboratory results published in PubChem BioAssay (NCI).
#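 Method: 48-hour compound exposure of cells in 96-well plates, five concentrations, linear interpolation of endpoints. Abbreviation: GI50, concentration required for 50% inhibition of growth. The concentration for full growth arrest is given as TGI.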
# Assays:
# Experiment in all cases: NCI tumour cell line growth inhibition, 48 h
# SK-MEL-28 melanoma = test system: SK-MEL-28 melanoma
# HL-60(TB) leukemia = test system: HL-60(TB) leukemia
# MDA-MB-435 = test system: MDA-MB-435
# SK-MEL-2 melanoma = test system: SK-MEL-2 melanoma
# ACHN renal = test system: ACHN renal
# HOP-62 NSCLC = test system: HOP-62 NSCLC
# HT29 colon = test system: HT29 colon
# SK-OV-3 ovarian = test system: SK-OV-3 ovarian
# SW-620 colon = test system: SW-620 colon
# UACC-257 melanoma = test system: UACC-257 melanoma
# NCI-H460 lung = test system: NCI-H460 lung
# BT-549 breast = test system: BT-549 breast
# RXF 393 renal = test system: RXF 393 renal
# OVCAR-4 ovarian = test system: OVCAR-4 ovarian
# A549 NSCLC = test system: A549 NSCLC
# OVCAR-3 ovarian = test system: OVCAR-3 ovarian
# PC-3 prostate = test system: PC-3 prostate
# NCI-H226 lung = test system: NCI-H226 lung
# NCI-H23 lung = test system: NCI-H23 lung
# U251 CNS = test system: U251 CNS
# UO-31 renal = test system: UO-31 renal
# OVCAR-5 ovarian = test system: OVCAR-5 ovarian
# LOX IMVI melanoma = test system: LOX IMVI melanoma
# HS 578T breast = test system: HS 578T breast
# RPMI-8226 leukemia = test system: RPMI-8226 leukemia
# HCC-2998 colon = test system: HCC-2998 colon
# UACC-62 melanoma = test system: UACC-62 melanoma
# MCF7 breast = test system: MCF7 breast
# 786-0 renal = test system: 786-0 renal
# HOP-92 NSCLC = test system: HOP-92 NSCLC
# CCRF-CEM leukemia = test system: CCRF-CEM leukemia
# SF-295 CNS = test system: SF-295 CNS
# SNB-75 CNS = test system: SNB-75 CNS
# SN12C renal = test system: SN12C renal
# HCT-15 colon = test system: HCT-15 colon
# SNB-19 CNS = test system: SNB-19 CNS
# DU-145 prostate = test system: DU-145 prostate
# MOLT-4 leukemia = test system: MOLT-4 leukemia
# MALME-3M melanoma = test system: MALME-3M melanoma
# IGROV1 ovarian = test system: IGROV1 ovarian
# HCT-116 colon = test system: HCT-116 colon
# EKVX NSCLC = test system: EKVX NSCLC
# NCI-H522 lung = test system: NCI-H522 lung
# MDA-MB-231 breast = test system: MDA-MB-231 breast
# SF-268 CNS = test system: SF-268 CNS
# K-562 leukemia = test system: K-562 leukemia
# NCI/ADR-RES ovarian = test system: NCI/ADR-RES ovarian
# T-47D breast = test system: T-47D breast
# CAKI-1 renal = test system: CAKI-1 renal
# SK-MEL-5 melanoma = test system: SK-MEL-5 melanoma
# KM12 colon = test system: KM12 colon
# SF-539 CNS = test system: SF-539 CNS
# OVCAR-8 ovarian = test system: OVCAR-8 ovarian
# TK-10 renal = test system: TK-10 renal
# COLO 205 colon = test system: COLO 205 colon
# A498 renal = test system: A498 renal
# M14 melanoma = test system: M14 melanoma
structure (smiles),measurement,setting,value
CO[C@H]1C[C@@H]2CC[C@@H](C)[C@@](O)(O2)C(=O)C(=O)N2CCCC[C@H]2C(=O)O[C@H]([C@H](C)C[C@@H]2CC[C@@H](OP(C)(C)=O)[C@H](OC)C2)CC(=O)[C@H](C)/C=C(\C)[C@@H](O)[C@@H](OC)C(=O)[C@H](C)C[C@H](C)/C=C/C=C/C=C/1C,GI50,SK-MEL-28 melanoma,11 µM
same,TGI,SK-MEL-28 melanoma,23.8 µM
same,GI50,HL-60(TB) leukemia,17.5 µM
same,TGI,HL-60(TB) leukemia,39.8 µM
same,GI50,MDA-MB-435,1.41 µM
same,TGI,MDA-MB-435,23.9 µM
same,GI50,SK-MEL-2 melanoma,2.31 µM
same,TGI,SK-MEL-2 melanoma,22.4 µM
same,GI50,ACHN renal,0.411 µM
same,TGI,ACHN renal,21.5 µM
same,GI50,HOP-62 NSCLC,< 0.01 µM
same,TGI,HOP-62 NSCLC,21.5 µM
same,GI50,HT29 colon,8.07 µM
same,TGI,HT29 colon,24 µM
same,GI50,SK-OV-3 ovarian,0.557 µM
same,TGI,SK-OV-3 ovarian,21.7 µM
same,GI50,SW-620 colon,12.1 µM
same,TGI,SW-620 colon,27.9 µM
same,GI50,UACC-257 melanoma,3.21 µM
same,TGI,UACC-257 melanoma,21.8 µM
same,TGI,NCI-H460 lung,21.8 µM
same,GI50,BT-549 breast,< 0.0131 µM
same,TGI,BT-549 breast,18.6 µM
same,GI50,RXF 393 renal,< 0.01 µM
same,TGI,RXF 393 renal,16.4 µM
same,GI50,OVCAR-4 ovarian,0.698 µM
same,TGI,OVCAR-4 ovarian,21.3 µM
same,GI50,A549 NSCLC,< 0.01 µM
same,TGI,A549 NSCLC,20.7 µM
same,GI50,OVCAR-3 ovarian,11.1 µM
same,TGI,OVCAR-3 ovarian,23.3 µM
same,GI50,PC-3 prostate,< 0.0419 µM
same,TGI,PC-3 prostate,18.8 µM
same,GI50,NCI-H226 lung,1.71 µM
same,TGI,NCI-H226 lung,24.2 µM
same,GI50,NCI-H23 lung,11.1 µM
same,TGI,NCI-H23 lung,29.1 µM
same,GI50,U251 CNS,0.0208 µM
same,TGI,U251 CNS,19.2 µM
same,GI50,UO-31 renal,< 0.01 µM
same,TGI,UO-31 renal,16.1 µM
same,GI50,OVCAR-5 ovarian,11.4 µM
same,TGI,OVCAR-5 ovarian,27.6 µM
same,GI50,LOX IMVI melanoma,< 0.01 µM
same,TGI,LOX IMVI melanoma,21.7 µM
same,TGI,HS 578T breast,37.1 µM
same,GI50,RPMI-8226 leukemia,8.49 µM
same,TGI,RPMI-8226 leukemia,40.6 µM
same,GI50,HCC-2998 colon,5.02 µM
same,TGI,HCC-2998 colon,24.7 µM
same,GI50,UACC-62 melanoma,0.386 µM
same,TGI,UACC-62 melanoma,20.7 µM
same,GI50,MCF7 breast,0.402 µM
same,TGI,MCF7 breast,21 µM
same,GI50,786-0 renal,8.92 µM
same,TGI,786-0 renal,22.7 µM
same,GI50,HOP-92 NSCLC,0.106 µM
same,TGI,HOP-92 NSCLC,17.2 µM
same,GI50,CCRF-CEM leukemia,8.17 µM
same,TGI,CCRF-CEM leukemia,52.4 µM
same,GI50,SF-295 CNS,< 0.01 µM
same,TGI,SF-295 CNS,15.5 µM
same,GI50,SNB-75 CNS,< 0.01 µM
same,TGI,SNB-75 CNS,15.7 µM
same,GI50,SN12C renal,11 µM
same,TGI,SN12C renal,25.8 µM
same,GI50,HCT-15 colon,1.21 µM
same,TGI,HCT-15 colon,29.5 µM
same,GI50,SNB-19 CNS,7.03 µM
same,TGI,SNB-19 CNS,23.5 µM
same,GI50,DU-145 prostate,10.4 µM
same,TGI,DU-145 prostate,22.4 µM
same,GI50,MOLT-4 leukemia,2.96 µM
same,TGI,MOLT-4 leukemia,37.1 µM
same,GI50,MALME-3M melanoma,< 0.01 µM
same,TGI,MALME-3M melanoma,16.8 µM
same,GI50,IGROV1 ovarian,< 0.01 µM
same,TGI,IGROV1 ovarian,18.3 µM
same,GI50,HCT-116 colon,11.8 µM
same,TGI,HCT-116 colon,24.8 µM
same,GI50,EKVX NSCLC,< 0.01 µM
same,TGI,EKVX NSCLC,18.5 µM
same,TGI,NCI-H522 lung,19.9 µM
same,GI50,MDA-MB-231 breast,12.4 µM
same,TGI,MDA-MB-231 breast,27.7 µM
same,GI50,SF-268 CNS,10.9 µM
same,TGI,SF-268 CNS,23.6 µM
same,GI50,K-562 leukemia,11.7 µM
same,TGI,K-562 leukemia,> 69.4 µM
same,GI50,NCI/ADR-RES ovarian,11 µM
same,TGI,NCI/ADR-RES ovarian,30.8 µM
same,GI50,T-47D breast,< 0.01 µM
same,TGI,T-47D breast,23 µM
same,GI50,CAKI-1 renal,10.8 µM
same,TGI,CAKI-1 renal,25.9 µM
same,TGI,SK-MEL-5 melanoma,18.4 µM
same,GI50,KM12 colon,11.1 µM
same,TGI,KM12 colon,25.3 µM
same,GI50,SF-539 CNS,< 0.0234 µM
same,TGI,SF-539 CNS,21.7 µM
same,GI50,OVCAR-8 ovarian,< 0.01 µM
same,TGI,OVCAR-8 ovarian,28.8 µM
same,TGI,TK-10 renal,22.3 µM
same,GI50,COLO 205 colon,12.7 µM
same,TGI,COLO 205 colon,27.7 µM
same,GI50,A498 renal,< 0.01 µM
same,TGI,A498 renal,15.5 µM
same,GI50,M14 melanoma,11.8 µM
same,TGI,M14 melanoma,26 µM
